From patent US20250195511A1, “INDAZOLE DERIVATIVES USEFUL AS INHIBITORS OF NOD-LIKE RECEPTOR PROTEIN 3” (Merck Sharp & Dohme LLC, priority 2023, published 2025) come the findings set out here.

The experiment has as its system NLRP3 inflammasome. Description: NLRP3 inflammasome activation: ASC-SPECK formation in gramicidin-stimulated THP-1 cells. The class given is cell-based. As to conditions: PMA-treated human monocytic THP-1 cells, compound 1 h before 12.5 μg/ml gramicidin, 3-hour treatment. The text has this:
Activation of the canonical NLRP3 inflammasome requires two steps, priming and activation. A priming signal such as a pathogen activated molecular patterns (PAMPs) or danger-activated molecular patterns (DAMPs) are recognized by Toll-like receptors leads to nuclear factor kappa B (NF-KB)-mediated signaling. […] The second step is activation which induces oligomerization of NLRP3 and subsequent assembly of NLRP3, apoptosis-associated speck-like protein containing a CARD (ASC), and procaspase-1 into an inflammasome complex. This triggers the transformation of procaspase-1 to caspase-1, and the production and secretion of mature IL-1β and IL-18 (Kim et al., J. Inflamm. 2015, 12, 41; Ozaki et al., J. Inflamm. Res. 2015, 8, 15-27; Rabeony et al., Eur. J. Immunol. 2015, 45, 2847). During inflammasome complex assembly, the oligomerization of NLRP3 triggers the nucleation of ASC and an event commonly referred to as “ASC SPECK” formation, as it is identified in the cell as a discrete puncta within the cell after staining and visualization of ASC using common immunocytochemical methods.
The ability of compounds to inhibit NLRP3 inflammasome activation was determined in vitro by monitoring formation of the ASC-SPECK in human monocytic THP-1 cells after stimulation. THP-1 cells (ATCC catalog #TIB-202) were maintained in complete growth media containing Roswell Park Memorial Institute RPMI (ATCC catalog #30-2001), 10% heat inactivated fetal bovine serum, 1× penicillin/streptomycin and 0.05 mM 2-mercaptoethanol. At the start of the assay, undifferentiated THP-1 cells were plated at a density of 20,000 cells per well in a 384-well plate (Poly-D-lysine coated Cell Carrier Ultra microplate, Perkin Elmer catalog #6057500) in complete growth media supplemented with 10 ng/ml phorbol 12-myristate 13-acetate (PMA; Sigma catalog #P8139), and then incubated overnight. The next day, media was replaced with assay media (RPMI (Gibco catalog #11875-093), 0.01% bovine serum albumin (BSA)). Compounds were serially diluted in DMSO and then added to wells one hour prior to the addition of 12.5 μg/ml Gramicidin (Enzo Lifescience, catalog #ALX-350-233-M005). All incubations were carried out at 37° C. (5% CO2/95% air). Following a 3-hour treatment with gramicidin, cells are fixed with 4% paraformaldehyde and stored at 4° C. until immunofluorescence staining.
Immunofluorescence staining: Anti-ASC antibody (MBL catalog #D086-3) was desalted and labeled with Alexa 488 antibody labeling kit (Thermo catalog #A20181) prior to use as described below. After fixation, the following steps were carried out at rt. Cells were first permeabilized with 0.3% polyethylene glycol tert-octylphenyl ether (Triton X-100) in phosphate-buffered saline (PBS) for 15 minutes and then incubated in blocking buffer containing 5% goat serum, 0.3% polyethylene glycol sorbitan monolaurate (Tween-20) and 0.03% sodium azide in PBS for 1 hour. Cells were stained with a mixture of ASC-Alexa 488 antibody (diluted 1:200 in blocking buffer) and nuclear stain DRAQ5 (1:5000 in blocking buffer, Thermo catalog #62251) in blocking buffer for 1 hour. Following a wash with 0.3% polyethylene glycol sorbitan monolaurate (Tween-20) in PBS, plates were imaged with an Opera Phenix High Content Screening System. The number of DRAQ5 positive cells containing ASC SPECKS were quantified in each well.
Data analysis: EC50 values were calculated by standard curve-fitting analysis using an internally developed program in TIBCO Spotfire software.

The mark [1] stands for this setting: Homo sapiens, THP-1, inhibition of ASC SPECK formation.
Where [2] appears, read: inhibition of ASC SPECK formation.

As to `Cc1cc(C(F)(F)F)cc(O)c1-c1cnc2cn([C@]34CCC[C@H]3OCC4)nc2n1` (mixture of isomers) [Example 21, 2-(2-((3aS,6aR and 3aR,6aS)-hexahydro-3aH-cyclopenta[b]furan-3a-yl)-2H-pyrazolo[3,4-b]pyrazin-6-yl)-3-methyl-5-(trifluoromethyl)phenol], under setting [1], the EC50 was determined as 814 nM.

Turning to `Cc1cc(C(F)(F)F)cc(O)c1-c1cnc2cn(C3COC4(C)CC3C4)nc2n1` (racemic) [Example 19, (R and S)-3-methyl-2-(2-(1-methyl-2-oxabicyclo[3.1.1]heptan-4-yl)-2H-pyrazolo[3,4-b]pyrazin-6-yl)-5-(trifluoromethyl)phenol], the EC50 under setting [1] was 876 nM.

Consider `Cc1cc(C(F)(F)F)cc(O)c1-c1cnc2cn([C@@H]3CC[C@H](C#N)C3)nc2n1` (racemic) [Example 20, (1S,3R and 1R,3S)-3-(6-(2-hydroxy-6-methyl-4-(trifluoromethyl)phenyl)-2H-pyrazolo[3,4-b]pyrazin-2-yl)cyclopentane-1-carbonitrile], for which, under setting [1], the EC50 came to 186 nM.

As to `Cc1cc(C(F)(F)F)cc(O)c1-c1cnc2cn(C3CCCOC34CCC4)nc2n1` (racemic) [Example 22, (S and R)-2-(2-(5-oxaspiro[3.5]nonan-9-yl)-2H-pyrazolo[3,4-b]pyrazin-6-yl)-3-methyl-5-(trifluoromethyl)phenol], the EC50 under setting [1] stood at 202 nM.

On to `Cc1cc(C(F)(F)F)cc(O)c1-c1cnc2cn(C3CC34CCOCC4)nc2n1` (racemic) [Example 23, (S and R)-2-(2-(6-oxaspiro[2.5]octan-1-yl)-2H-pyrazolo[3,4-b]pyrazin-6-yl)-3-methyl-5-(trifluoromethyl)phenol], for which, under setting [1], the EC50 amounted to 461 nM.

As to `Cc1cc(C(F)(F)F)cc(O)c1-c1cnc2cn(C34CC(C)(C3)OC4C)nc2n1` (racemic) [Example 24, (S and R)-2-(2-(1,3-dimethyl-2-oxabicyclo[2.1.1]hexan-4-yl)-2H-pyrazolo[3,4-b]pyrazin-6-yl)-3-methyl-5-(trifluoromethyl)phenol], the 50% effective concentration (EC50) under setting [1] is 427 nM.

As to `Cc1cc(C(F)(F)F)cc(O)c1-c1cnc2cn(C3COC4CC3C4)nc2n1` (racemic) [Example 25, (S and R)-2-(2-(2-oxabicyclo[3.1.1]heptan-4-yl)-2H-pyrazolo[3,4-b]pyrazin-6-yl)-3-methyl-5-(trifluoromethyl)phenol], the EC50 under setting [1] amounted to 261 nM.

On to `COc1ccc(CN2CC(n3nc4nc(-c5c(C)cc(C(F)(F)F)cc5O)cnc4c3C)CCC2=O)cc1` (racemic) [Example 107, (R and S)-5-(6-(2-hydroxy-6-methyl-4-(trifluoromethyl)phenyl)-3-methyl-2H-pyrazolo[3,4-b]pyrazin-2-yl)-1-(4-methoxybenzyl)piperidin-2-one], for which the concentration giving a half-maximal response (EC50) under setting [1] amounted to 279 nM.

Turning to `Cc1cc(C(F)(F)F)cc(O)c1-c1cnc2cn([C@@H]3C[C@@H]4C[C@H]3CO4)nc2n1` (single isomer, unassigned) [Example 3, 2-(2-((1S,4R,5R or 1R,4S,5S)-2-oxabicyclo[2.2.1]heptan-5-yl)-2H-pyrazolo[3,4-b]pyrazin-6-yl)-3-methyl-5-(trifluoromethyl)phenol], the EC50 under setting [2] was 35 nM.

As for `Cc1cc(C(F)(F)F)cc(O)c1-c1cnc2cn([C@H]3C[C@H]4C[C@@H]3CO4)nc2n1` (single isomer, unassigned) [Example 4, 2-(2-((1R,4S,5S or 1S,4R,5R)-2-oxabicyclo[2.2.1]heptan-5-yl)-2H-pyrazolo[3,4-b]pyrazin-6-yl)-3-methyl-5-(trifluoromethyl)phenol], under setting [2], the EC50 came to 34 nM.

Consider `Cc1cc(C(F)(F)F)cc(O)c1-c1cnc2cn(C3C4CS(=O)(=O)CC43)nc2n1` (single isomer, unassigned) [Example 53, (1R,5S,6S or 1R,5S,6R)-6-(6-(2-hydroxy-6-methyl-4-(trifluoromethyl)phenyl)-2H-pyrazolo[3,4-b]pyrazin-2-yl)-3-thiabicyclo[3.1.0]hexane 3,3-dioxide], for which the EC50 under setting [2] was 981 nM.

With `Cc1cc(C(F)(F)F)cc(O)c1-c1cnc2cn(C3C4CS(=O)(=O)CC43)nc2n1` (single isomer, unassigned) [Example 54, (1R,5S,6R or 1R,5S,6S)-6-(6-(2-hydroxy-6-methyl-4-(trifluoromethyl)phenyl)-2H-pyrazolo[3,4-b]pyrazin-2-yl)-3-thiabicyclo[3.1.0]hexane 3,3-dioxide], under setting [2], the EC50 came out at 98 nM.

As for `Cc1cc(C(F)(F)F)cc(O)c1-c1cnc2cn(CC3CC(=O)N(C)C3)nc2n1` (single isomer, unassigned) [Example 58, (R or S)-4-((6-(2-hydroxy-6-methyl-4-(trifluoromethyl)phenyl)-2H-pyrazolo[3,4-b]pyrazin-2-yl)methyl)-1-methylpyrrolidin-2-one], under setting [2], the EC50 was determined as 298 nM.

As to `Cc1cc(C(F)(F)F)cc(O)c1-c1cnc2cn(CC3CC(=O)N(C)C3)nc2n1` (single isomer, unassigned) [Example 59, (S or R)-4-((6-(2-hydroxy-6-methyl-4-(trifluoromethyl)phenyl)-2H-pyrazolo[3,4-b]pyrazin-2-yl)methyl)-1-methylpyrrolidin-2-one], the EC50 under setting [2] turned out to be 20 nM.

As for `Cc1cc(C(F)(F)F)cc(O)c1-c1cnc2cn(C3CCC(=O)N(C(C)C)C3)nc2n1` (single isomer, unassigned) [Example 60, (R or S)-5-(6-(2-hydroxy-6-methyl-4-(trifluoromethyl)phenyl)-2H-pyrazolo[3,4-b]pyrazin-2-yl)-1-isopropylpiperidin-2-one], the EC50 under setting [2] stood at 7 nM.

`Cc1cc(C(F)(F)F)cc(O)c1-c1cnc2cn(C3CCC(=O)N(C(C)C)C3)nc2n1` (single isomer, unassigned) [Example 61, (S or R)-5-(6-(2-hydroxy-6-methyl-4-(trifluoromethyl)phenyl)-2H-pyrazolo[3,4-b]pyrazin-2-yl)-1-isopropylpiperidin-2-one]: the EC50 under setting [2] is 101 nM.

`Cc1cc(C(F)(F)F)cc(O)c1-c1cnc2cn(CC3CC(=O)N(C4CC4)C3)nc2n1` (single isomer, unassigned) [Example 62, (R or S)-1-cyclopropyl-4-((6-(2-hydroxy-6-methyl-4-(trifluoromethyl)phenyl)-2H-pyrazolo[3,4-b]pyrazin-2-yl)methyl)pyrrolidin-2-one]: the EC50 under setting [2] came out at 291 nM.

Regarding `Cc1cc(C(F)(F)F)cc(O)c1-c1cnc2cn(CC3CC(=O)N(C4CC4)C3)nc2n1` (single isomer, unassigned) [Example 63, (S or R)-1-cyclopropyl-4-((6-(2-hydroxy-6-methyl-4-(trifluoromethyl)phenyl)-2H-pyrazolo[3,4-b]pyrazin-2-yl)methyl)pyrrolidin-2-one], the EC50 under setting [2] came out at 12 nM.

On to `CCN1CC(n2cc3ncc(-c4c(C)cc(C(F)(F)F)cc4O)nc3n2)CCC1=O` (single isomer, unassigned) [Example 64, (R or S)-1-ethyl-5-(6-(2-hydroxy-6-methyl-4-(trifluoromethyl)phenyl)-2H-pyrazolo[3,4-b]pyrazin-2-yl)piperidin-2-one], for which the EC50 under setting [2] stood at 10 nM.

With `CCN1CC(n2cc3ncc(-c4c(C)cc(C(F)(F)F)cc4O)nc3n2)CCC1=O` (single isomer, unassigned) [Example 65, (S or R)-1-ethyl-5-(6-(2-hydroxy-6-methyl-4-(trifluoromethyl)phenyl)-2H-pyrazolo[3,4-b]pyrazin-2-yl)piperidin-2-one], under setting [2], the EC50 is 79 nM.
